Read-outs that look alike come from different tables or passages of the source. Blank lines part the entries; values can stand above or below the compound they belong to.
Molecular target: T1, rabKCC1 (Oryctolagus cuniculus, UniProt Q28677)
T1 construct: a full-length rabbit KCC1 cDNA was subcloned into pGEMHE; expressed in transfected cells; host or cells: Xenopus laevis oocytes injected with cRNA
T1 sequence (Q28677 1-1085): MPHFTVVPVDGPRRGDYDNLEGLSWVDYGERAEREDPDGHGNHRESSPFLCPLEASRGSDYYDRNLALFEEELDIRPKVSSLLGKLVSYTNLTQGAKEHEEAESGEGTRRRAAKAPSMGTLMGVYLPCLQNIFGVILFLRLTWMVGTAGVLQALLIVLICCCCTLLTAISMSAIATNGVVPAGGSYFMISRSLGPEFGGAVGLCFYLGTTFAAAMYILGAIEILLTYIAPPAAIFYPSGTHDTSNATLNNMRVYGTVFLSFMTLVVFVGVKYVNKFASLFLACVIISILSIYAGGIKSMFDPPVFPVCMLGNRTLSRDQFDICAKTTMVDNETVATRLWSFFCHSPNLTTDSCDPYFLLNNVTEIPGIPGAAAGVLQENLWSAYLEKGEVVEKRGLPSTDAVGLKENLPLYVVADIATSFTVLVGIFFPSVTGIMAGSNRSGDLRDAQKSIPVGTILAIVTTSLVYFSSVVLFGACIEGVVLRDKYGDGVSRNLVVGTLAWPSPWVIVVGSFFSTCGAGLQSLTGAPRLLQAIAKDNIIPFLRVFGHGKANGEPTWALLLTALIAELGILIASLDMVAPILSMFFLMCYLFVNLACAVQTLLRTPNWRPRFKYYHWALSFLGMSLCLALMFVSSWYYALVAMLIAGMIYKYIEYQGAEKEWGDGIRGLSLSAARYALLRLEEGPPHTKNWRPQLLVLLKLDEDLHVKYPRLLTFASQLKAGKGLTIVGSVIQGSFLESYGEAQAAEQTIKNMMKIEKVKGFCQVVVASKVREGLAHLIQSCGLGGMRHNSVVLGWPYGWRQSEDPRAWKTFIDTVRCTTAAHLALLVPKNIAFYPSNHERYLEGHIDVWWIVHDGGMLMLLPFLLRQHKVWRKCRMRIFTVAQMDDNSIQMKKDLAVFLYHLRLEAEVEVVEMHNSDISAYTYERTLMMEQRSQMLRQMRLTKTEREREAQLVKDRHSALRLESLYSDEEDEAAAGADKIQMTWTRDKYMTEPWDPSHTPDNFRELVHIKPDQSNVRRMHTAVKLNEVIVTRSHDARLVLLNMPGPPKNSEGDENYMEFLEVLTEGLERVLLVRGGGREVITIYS
Experiment: 86Rb+ uptake (K+-Cl- cotransport) in Xenopus oocytes injected with rabKCC1 cRNA
Type: cell-based, rabbit
Conditions: for KCC1 function (86Rb+ uptake, % of control): 2 mM diuretic; for effect on activation of KCC1 by cell swelling: calyculin A 100 nM, okadaic acid 1 nM, cypermethrin 100 pM; for KCC1 function remaining: 100 μM DIDS
Description: On the next day, defolliculated stage V–VI oocytes were injected with 50 nl of water or a solution containing cRNA at a concentration of 0.25–0.5 μg/μl (25 ng/oocyte). […] The incubation medium was changed every 24 hours.
For functional comparison with mKCC4, a full-length rabbit KCC1 cDNA was subcloned into pGEMHE. […] To prepare a template for cRNA, the rabbit KCC1 and […] cDNAs were linearized at the 3′-end using NheI, and cRNA was transcribed in vitro using the T7 RNA polymerase and the mMESSAGE mMACHINE kit (Ambion, Inc. of Austin, Tex.). Transcription product integrity was confirmed on agarose gels, and concentration was determined by absorbance reading at 260 nm (DU 640 available from Beckman of Fullerton, Calif.).
K^+—Cl^− cotransport was assessed by measuring tracer ^86Rb^+ uptake (NEN® Life Science Products of Boston, Mass.) in experimental groups of at least 15 oocytes. […] Isotonic conditions were generated by supplementing the same solutions with 3.5 g/100 ml sucrose to reach isosmolar conditions for oocytes (˜210 mOsm/kg). Ouabain was added to prevent ^86Rb^+ uptake via the Na^+—K^+-ATPase.
All uptake assays were performed at 32° C. At the end of the uptake period, oocytes were washed five times in ice-cold uptake solution without isotope to remove extracellular fluid tracer. Oocytes were dissolved in 10% SDS, and tracer activity was determined for each oocyte by β-scintillation counting.
To determine the ion transport kinetics of KCC4 and KCC1, ^86Rb^+ uptake experiments were performed in variable concentrations of K^+ and Cl^−. The sensitivity for several inhibitors was assessed by exposing groups of oocytes to the inhibitors at concentrations varying from […] to 2 mM. For these experiments, the desired concentration of the inhibitor was present during both the incubation and uptake periods, except when noted.

[1] = 2 mM extracellular K+, hypotonic
[2] = 50 mM extracellular K+, hypotonic
[3] = KCC1, counterion fixed at 50 mM, hypotonic
[4] = KCC1, counterion fixed at 50 mM, hypotonic, read-out: apparent Km for extracellular ion

KCC1 function (86Rb+ uptake, % of control) [1]: 64±4%
KCC1 function (86Rb+ uptake, % of control) [2]: 74±8%
Compound: NS(=O)(=O)c1cc2c(cc1Cl)NC(C(Cl)Cl)NS2(=O)=O (centres unmarked) [trichlormethiazide]

KCC1 function (86Rb+ uptake, % of control) [1]: 51±12%
KCC1 function (86Rb+ uptake, % of control) [2]: 19±7%
IC50 (KCC1, 10 mM extracellular K+, read-out: apparent half-maximal inhibition (K=0.5) of Cl−-dependent 86Rb+ uptake): ~180 µM
Compound: CCCCNc1cc(C(=O)O)cc(S(N)(=O)=O)c1Oc1ccccc1 [bumetanide]

Compound: C=C1[C@@H](O)[C@@H]2O[C@]3(CC[C@H](/C=C/[C@@H](C)[C@@H]4CC(C)=C[C@@]5(O[C@H](C[C@@](C)(O)C(=O)O)CC[C@H]5O)O4)O3)CC[C@H]2O[C@@H]1[C@@H](O)C[C@H](C)[C@H]1O[C@@]2(CCCCO2)CC[C@H]1C [okadaic acid]
effect on activation of KCC1 by cell swelling (hypotonic): neither okadaic acid, nor cypermethrin prevented this activation

Compound: [Ba+2].[Cl-].[Cl-] [BaCl2]
KCC1 function, % of control (10 mM BaCl2 in hypotonic uptake medium): 79±4.2%

KCC1 function (86Rb+ uptake, % of control) [1]: 9±2%
KCC1 function (86Rb+ uptake, % of control) [2]: 18±8%
Compound: NS(=O)(=O)c1cc(C(=O)O)c(NCc2ccco2)cc1Cl [furosemide]

Compound: CC1(C)C(C=C(Cl)Cl)C1C(=O)OC(C#N)c1cccc(Oc2ccccc2)c1 (centres unmarked) [cypermethrin]
effect on activation of KCC1 by cell swelling (hypotonic): neither okadaic acid, nor cypermethrin prevented this activation

Compound: [K+] [Potassium]
Hill coefficient (KCC1): 1.04±0.13
apparent Vmax for extracellular ion [3]: 39,540±2,199 pmol×oocyte^−1×hour^−1
Km [4]: 25.5 ± 3.2 mM
Km (KCC1, read-out: Potassium Km): 25.5 mM

Compound: COC[C@@H]([C@H](O)[C@H](O)C(=O)NCC[C@H](C)c1nc(/C=C/C[C@@H]2O[C@]3(C[C@@H](O)[C@@H]2C)O[C@H]([C@H](C[C@H](O)[C@H](C)[C@H](O)[C@H](C)/C=C(C)/C(C)=C/C=C/C(C)=C\C#N)OC)[C@H](OP(=O)(O)O)C3(C)C)co1)N(C)C [calyculin A]
effect on activation of KCC1 by cell swelling (hypotonic): completely prevents the activation

Compound: HgCl2 [Hg—Cl2]
response of KCC1 to mercury (50 μM HgCl2, hypotonic): resistant

Compound: CCN1C(=O)C=CC1=O [NEM, N-ethylmaleimide]
reduction of KCC1-induced 86Rb+ uptake (1 mM NEM, hypotonic): 55%
fold activation of KCC1 (1 mM NEM, isotonic): 2.6 fold
86Rb+ uptake in NEM-treated group (KCC1, 1 mM NEM, isotonic): 319±76 pmol×oocyte^−1×hour^−1

KCC1 function remaining [1]: 85±6%
KCC1 function remaining [2]: 13±2%
Compound: O=S(=O)(O)c1cc(N=C=S)ccc1C=Cc1ccc(N=C=S)cc1S(=O)(=O)O [DIDS]

effect on KCC1-induced 86Rb+ uptake (100 μM DIOA, hypotonic): inhibition
Compound: CCCCC1(C2CCCC2)Cc2cc(OCC(=O)O)c(Cl)c(Cl)c2C1=O (centres unmarked) [DIOA]

Compound: Cl [Chloride]
Hill coefficient (KCC1): 1.3±0.5
apparent Vmax for extracellular ion [3]: 14,930±2,822 pmol×oocyte^−1×hour^−1
Km [4]: 17.2 ± 8.3 mM
Km (KCC1, read-out: Chloride Km): 17.2 mM
